Assay results taken from ChEMBL document CHEMBL1201862, “PubChem BioAssay data set” (2004).
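How tested: cells in 96-well plates exposed to compound for 48 hours at five concentrations. Abbreviation: GI50, concentration required for 50% inhibition of growth.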 Calls of active or inactive are those of the source. Rule as the data show it: active = GI50 up to about 1.1 µM and inactive = higher.

Key:
Experiment in all cases: NCI tumour cell line growth inhibition, 48 h
[1] = system: DMS-114
[2] = system: XF498
[3] = system: LXFL 529
[4] = system: HOP-18
[5] = system: KM-20L2
[6] = system: RXF 631
[7] = system: DMS-273
[8] = system: DLD-1
[9] = system: SNB-78

Row | Compound | GI50 [1] | GI50 [2] | GI50 [3] | GI50 [4] | GI50 [5] | GI50 [6] | GI50 [7] | GI50 [8] | GI50 [9]
1 | CC(=O)C1C(=O)C(=O)N(CCN2C(=O)C(=O)C(C(C)=O)C2=O)C1=O (stereo not drawn) | > 100 µM (inactive) | > 100 µM (inactive) | > 100 µM (inactive) | > 100 µM (inactive) | > 100 µM (inactive) | > 100 µM (inactive) | > 100 µM (inactive) |  | 
2 | O=C1[C@H]2ON(c3ccccc3)C(c3ccccc3)[C@H]2C(=O)N1c1ccc(Cc2ccc(N3C(=O)[C@@H]4ON(c5ccccc5)C(c5ccccc5)[C@@H]4C3=O)cc2)cc1 (stereo partly drawn) | > 100 µM (inactive) |  | > 100 µM (inactive) | > 100 µM (inactive) | > 100 µM (inactive) | > 100 µM (inactive) | > 100 µM (inactive) | > 100 µM (inactive) | > 100 µM (inactive)
3 | COc1c(C2=NC(C(C)C)CO2)ccc2ccccc12 (stereo not drawn) |  | 30.4 µM (inactive) | 19.2 µM (inactive) |  | 42.1 µM (inactive) | 39.5 µM (inactive) | 23 µM (inactive) | 16.1 µM (inactive) | 79.4 µM (inactive)
4 | NS(=O)(=O)c1ccc(NC(=O)c2cccc3c(=O)c4ccccc4[nH]c23)cc1 | 74.8 µM (inactive) | 11.5 µM (inactive) | 30.6 µM (inactive) | > 100 µM (inactive) | 38.6 µM (inactive) |  | 70.1 µM (inactive) | > 100 µM (inactive) | 49.3 µM (inactive)
5 | CC(C)N(C(=O)C12C3C4C5C3C1(C(=O)O)C5C42)C(C)C (stereo not drawn) | > 100 µM (inactive) | > 100 µM (inactive) | > 100 µM (inactive) |  | > 100 µM (inactive) | > 100 µM (inactive) | > 100 µM (inactive) | > 100 µM (inactive) | > 100 µM (inactive)
6 | COc1cccc(N2C(=O)[C@H]3[C@H]4CC(C(C)(C)C)CC[C@H]4c4c([nH]c5ccccc45)[C@H]3C2=O)c1 (stereo partly drawn) | 17.7 µM (inactive) |  | 20 µM (inactive) |  |  | 17.6 µM (inactive) | 18.3 µM (inactive) | 22.5 µM (inactive) | 14.5 µM (inactive)
7 | CC(=O)c1cc2c3c(c1)c1cc4c(cc1c(=O)n3CC2)OCO4 | 37.7 µM (inactive) | > 100 µM (inactive) | 10.4 µM (inactive) | 13.5 µM (inactive) | 23.7 µM (inactive) | 21.5 µM (inactive) | 7 µM (inactive) | 15.2 µM (inactive) | > 100 µM (inactive)
8 | CC(=O)OC12CCCCC1C1(CCCC1)NC2=O (stereo not drawn) | > 100 µM (inactive) | > 100 µM (inactive) | > 100 µM (inactive) | > 100 µM (inactive) | > 100 µM (inactive) |  |  | > 100 µM (inactive) | > 100 µM (inactive)
9 | Cc1nc2ccccc2c(=O)n1/N=C(\N=N\c1cc(Cl)ccc1Cl)c1cccc(-c2ccco2)c1 | 41.4 µM (inactive) |  |  | > 100 µM (inactive) |  | > 100 µM (inactive) | 63.2 µM (inactive) | 87.9 µM (inactive) | 
10 | Cc1ccc(NC(=O)C(=O)C2NC(=S)NC2=O)c([N+](=O)[O-])c1 (stereo not drawn) | > 100 µM (inactive) | > 100 µM (inactive) | > 100 µM (inactive) | > 100 µM (inactive) | > 100 µM (inactive) |  | > 100 µM (inactive) | > 100 µM (inactive) | > 100 µM (inactive)
11 | Cc1cc(O)nc(NN2C(Cl)C(=O)C2c2ccc(Cl)cc2)n1 (stereo not drawn) | 13.5 µM (inactive) |  | 5.86 µM (inactive) | 8.55 µM (inactive) | 20.6 µM (inactive) |  | 11.9 µM (inactive) |  | 17.9 µM (inactive)
12 | CCc1c(OC(C)=O)c2c(NC3OC(COC(C)=O)C(OC(C)=O)C(OC(C)=O)C3OC(C)=O)nc(OC)nc2oc1=O (stereo not drawn) | > 100 µM (inactive) | > 100 µM (inactive) | > 100 µM (inactive) | > 100 µM (inactive) | > 100 µM (inactive) |  | > 100 µM (inactive) | > 100 µM (inactive) | > 100 µM (inactive)
13 | Cc1ccc(S(=O)(=O)N/N=C\c2c3ccccc3[n+](C)c3ccccc23)cc1 | 24.9 µM (inactive) |  |  |  | 31.7 µM (inactive) |  | 22.1 µM (inactive) | 38.1 µM (inactive) | 61.7 µM (inactive)
14 | O=C(O/N=C1/CCCC/C1=C\c1ccccc1)c1ccc(Cl)cc1 |  | 0.439 µM (active) | 48 µM (inactive) | > 100 µM (inactive) | > 100 µM (inactive) |  | > 100 µM (inactive) | > 100 µM (inactive) | > 100 µM (inactive)
15 | CCN(CC)CCC(=O)Nc1ccc2c(c1)C(=O)c1ccc(NC(=O)CCN(CC)CC)cc1C2=O | 3.21 µM (inactive) |  | 3.11 µM (inactive) | 0.475 µM (active) | 14.6 µM (inactive) |  | 1.19 µM (inactive) | 1.81 µM (inactive) | 5.96 µM (inactive)
16 | CC1(C)OCN(c2ccc(N3CCOCC3)cc2)Cn2c1nc1ccccc12 | > 100 µM (inactive) |  | > 100 µM (inactive) | > 100 µM (inactive) | > 100 µM (inactive) |  | 80.9 µM (inactive) | > 100 µM (inactive) | > 100 µM (inactive)
17 | c1cnc2nc3n(c2c1)CSC3 | > 100 µM (inactive) | > 100 µM (inactive) | > 100 µM (inactive) |  | > 100 µM (inactive) |  |  | > 100 µM (inactive) | > 100 µM (inactive)
18 | O=[N+]([O-])c1nccn1COCCI | > 100 µM (inactive) | > 100 µM (inactive) | > 100 µM (inactive) |  | > 100 µM (inactive) |  | > 100 µM (inactive) | > 100 µM (inactive) | > 100 µM (inactive)
19 | CCOC(=O)Nc1ccc(S(=O)(=O)I)cc1.CCOC(=O)Nc1ccc(S(=O)(=O)I)cc1.CN(C=O)C1=C(N(C)C=O)C(N(C)C=O)=C(N(C)C=O)C(=O)C1=O | > 100 µM (inactive) | > 100 µM (inactive) | > 100 µM (inactive) | > 100 µM (inactive) | > 100 µM (inactive) | > 100 µM (inactive) |  |  | > 100 µM (inactive)
20 | CC1CCC2(OCCO2)[C@]2(C)CC(O)C(=O)C=C12 (stereo partly drawn) | > 100 µM (inactive) | > 100 µM (inactive) | > 100 µM (inactive) | > 100 µM (inactive) |  |  | > 100 µM (inactive) | > 100 µM (inactive) | 
21 | C=C1C(=O)C23C(O)C1CC[C@H]2C12CCCC(C)(COC(C)=O)[C@H]1[C@H](O)[C@]3(O)OC2 (stereo partly drawn) | 1.87 µM (inactive) | 1.4 µM (inactive) | 0.427 µM (active) | 1.27 µM (inactive) | 1.56 µM (inactive) |  | 1.94 µM (inactive) | 0.577 µM (active) | 0.653 µM (active)
22 | CC1(Cl)C(=O)NC(=O)N([C@H]2C[C@H](O)[C@@H](CO)O2)C1N=[N+]=[N-] (stereo partly drawn) | > 94.8 µM (inactive) | > 100 µM (inactive) | > 100 µM (inactive) | > 100 µM (inactive) | > 100 µM (inactive) | > 100 µM (inactive) | > 100 µM (inactive) | > 100 µM (inactive) | > 100 µM (inactive)
23 | Cc1ccccc1-n1c2nc(=O)n(C)c(=O)c-2nc2ccccc21 | 4.9 µM (inactive) | 17.5 µM (inactive) | 12.5 µM (inactive) | 10.5 µM (inactive) | 7.35 µM (inactive) | 14.6 µM (inactive) | 10.9 µM (inactive) | 16.7 µM (inactive) | 18.6 µM (inactive)
24 | COc1ccc(CC2NCCc3c2[nH]c2ccccc32)cc1 (stereo not drawn) | 33.1 µM (inactive) | 16.9 µM (inactive) | 62.4 µM (inactive) |  | 33.7 µM (inactive) | 25.3 µM (inactive) | 26.5 µM (inactive) | > 100 µM (inactive) | 70.6 µM (inactive)
